Several values for one entry are separate records, joined by “and”; a condition that tells them apart may be missing. Equal entries are not always repeated. Inconclusive results and toxic doses are left out.
Tested on: BDF1 mice, B16 melanoma ip, median survival T/C
Test: NCI In Vivo Anticancer Drug Screen. Data for tumor model B16 Melanoma (intraperitoneal) in B6D2F1 (BDF1) mice
Settings: endpoint: median survival time, higher = longer survival
Method in brief: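 Values are ratios of treated (T) to vehicle-control (C) measurements of survival or tumor size in tumor-bearing mice.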

[1] = dose: 3.12 mg/kg/injection, schedule: Q01DX009 (ip), vehicle: Klucel (hydroxypropylcellulose) (HPC)
[2] = dose: 6.25 mg/kg/injection, schedule: Q01DX009 (ip), vehicle: Klucel (hydroxypropylcellulose) (HPC)
[3] = dose: 12.5 mg/kg/injection, schedule: Q01DX009 (ip), vehicle: Klucel (hydroxypropylcellulose) (HPC)
[4] = dose: 25.0 mg/kg/injection, schedule: Q01DX009 (ip), vehicle: Klucel (hydroxypropylcellulose) (HPC)
[5] = dose: 100.0 mg/kg/injection, schedule: Q01DX009 (ip), vehicle: saline with Tween-80
[6] = dose: 400.0 mg/kg/injection, schedule: Q01DX009 (ip), vehicle: saline with Tween-80
[7] = dose: 25.0 mg/kg/injection, schedule: Q01DX009 (ip), vehicle: saline
[8] = dose: 50.0 mg/kg/injection, schedule: Q01DX009 (ip), vehicle: saline
[9] = dose: 100.0 mg/kg/injection, schedule: Q01DX009 (ip), vehicle: saline
[10] = dose: 50.0 mg/kg/injection, schedule: Q01DX009 (ip), vehicle: Klucel (hydroxypropylcellulose) (HPC)
[11] = dose: 100.0 mg/kg/injection, schedule: Q01DX009 (ip), vehicle: Klucel (hydroxypropylcellulose) (HPC)
[12] = dose: 12.5 mg/kg/injection, schedule: Q01DX009 (ip), vehicle: saline
[13] = dose: 200.0 mg/kg/injection, schedule: Q01DX009 (ip), vehicle: saline
[14] = dose: 6.25 mg/kg/injection, schedule: Q01DX009 (ip), vehicle: saline
[15] = dose: 100.0 mg/kg/injection, schedule: Q04DX003 (ip), vehicle: saline with Tween-80
[16] = dose: 200.0 mg/kg/injection, schedule: Q01DX009 (ip), vehicle: saline with Tween-80
[17] = dose: 200.0 mg/kg/injection, schedule: Q04DX003 (ip), vehicle: saline with Tween-80
[18] = dose: 400.0 mg/kg/injection, schedule: Q04DX003 (ip), vehicle: saline with Tween-80
[19] = dose: 12.5 mg/kg/injection, schedule: Q04DX003 (ip), vehicle: Klucel (hydroxypropylcellulose) (HPC)
[20] = dose: 100.0 mg/kg/injection, schedule: Q04DX003 (ip), vehicle: Klucel (hydroxypropylcellulose) (HPC)

Compound: CC(CN(C)C)CN1c2ccccc2CCc2ccccc21 (stereo not drawn)
- T/C (dose: 2.18 mg/kg/injection, schedule: Q01DX009 (ip), vehicle: saline): 106 % of control
- T/C (dose: 4.37 mg/kg/injection, schedule: Q01DX009 (ip), vehicle: saline): 110 % of control
- T/C (dose: 8.75 mg/kg/injection, schedule: Q01DX009 (ip), vehicle: saline): 100 % of control
- T/C (dose: 17.5 mg/kg/injection, schedule: Q01DX009 (ip), vehicle: saline): 91 % of control

Compound: COc1cc(NS(C)(=O)=O)ccc1Nc1c2cccc(C)c2nc2c(C)cccc12
- T/C (dose: 0.8 mg/kg/injection, schedule: Q01DX009 (ip), vehicle: other): 115 % of control
- T/C (dose: 1.6 mg/kg/injection, schedule: Q01DX009 (ip), vehicle: other): 115 % of control
- T/C (dose: 6.25 mg/kg/injection, schedule: Q01DX009 (ip), vehicle: saline sonified): 158 % of control
- T/C (dose: 12.5 mg/kg/injection, schedule: Q01DX009 (ip), vehicle: other): 189 % of control
- T/C (dose: 12.5 mg/kg/injection, schedule: Q01DX009 (ip), vehicle: saline sonified): 204 % of control
- T/C (dose: 25.0 mg/kg/injection, schedule: Q01DX009 (ip), vehicle: other): 208 % of control
- T/C (dose: 25.0 mg/kg/injection, schedule: Q01DX009 (ip), vehicle: saline sonified): 183 % of control
- T/C (dose: 25.0 mg/kg/injection, schedule: Q04DX003 (ip), vehicle: other): 166 % of control
- T/C (dose: 50.0 mg/kg/injection, schedule: Q01DX001 (ip), vehicle: saline sonified): 169 % of control
- T/C (dose: 50.0 mg/kg/injection, schedule: Q04DX003 (ip), vehicle: other): 156 % of control
- T/C (dose: 100.0 mg/kg/injection, schedule: Q01DX001 (ip), vehicle: saline sonified): 165 % of control
- T/C (dose: 200.0 mg/kg/injection, schedule: Q01DX001 (ip), vehicle: saline sonified): 152 % of control

Compound: O=C1Nc2ccccc2/C1=C\c1ccccc1O
- T/C (dose: 1.56 mg/kg/injection, schedule: Q01DX009 (ip), vehicle: Klucel (hydroxypropylcellulose) (HPC)): 106 % of control
- T/C [1]: 106 % of control
- T/C [2]: 91 % of control
- T/C [3]: 105 % of control
- T/C [4]: 89 % of control

Compound: CC1CN1P(=S)(Oc1ccccc1)N1CC1C (stereo not drawn)
- T/C (dose: 25.0 mg/kg/injection, schedule: Q01DX009 (ip), vehicle: saline with Tween-80): 97 % of control
- T/C (dose: 50.0 mg/kg/injection, schedule: Q01DX009 (ip), vehicle: saline with Tween-80): 95 % of control
- T/C [5]: 93 % of control and 97 % of control
- T/C [6]: 100 % of control

Compound: C=CCOCC(O)CN(C)CC1CCCO1 (stereo not drawn)
- T/C [7]: 103 % of control
- T/C [8]: 102 % of control
- T/C [9]: 91 % of control

Compound: COC1C(O)C(C)OC(O[C@@H]2C[C@H]3CC[C@@H]4[C@H](CC[C@]5(C)[C@@H](C6=CC(=O)OC6)CC[C@]45O)[C@@]3(C)[C@H](O)C2)C1O (stereo partly drawn)
- T/C [3]: 96 % of control
- T/C [4]: 87 % of control
- T/C [10]: 95 % of control
- T/C [11]: 98 % of control

Compound: C=C(C)[C@@H]1CC[C@]2(CO)CC[C@]3(C)[C@H](CC[C@@H]4[C@@]5(C)CC[C@H](O)C(C)(C)[C@@H]5CC[C@]43C)[C@@H]12
- T/C [11]: 99 % of control
- T/C (dose: 200.0 mg/kg/injection, schedule: Q01DX009 (ip), vehicle: Klucel (hydroxypropylcellulose) (HPC)): 97 % of control
- T/C (dose: 400.0 mg/kg/injection, schedule: Q01DX009 (ip), vehicle: Klucel (hydroxypropylcellulose) (HPC)): 95 % of control

Compound: CCCC1(CCC)CN(C)C1=O
- T/C [12]: 91 % of control
- T/C [7]: 89 % of control
- T/C [8]: 100 % of control
- T/C [9]: 106 % of control
- T/C [13]: 93 % of control

Compound: O=C(Nc1ccccc1C(F)(F)F)c1cccc(C(=O)Nc2ccccc2C(F)(F)F)c1
- T/C (dose: 100.0 mg/kg/injection, schedule: Q04DX003 (ip), vehicle: carboxymethylcellulose (CMC)): 100 % of control
- T/C (dose: 200.0 mg/kg/injection, schedule: Q04DX003 (ip), vehicle: carboxymethylcellulose (CMC)): 91 % of control

Compound: C[C@H](CCC(=O)O)[C@H]1CC[C@H]2[C@@H]3[C@H](O)C[C@@H]4C[C@H](O)CC[C@]4(C)[C@H]3C[C@H](O)[C@]12C (tested in a mixture with another compound)
- T/C [8]: 102 % of control
- T/C [9]: 109 % of control
- T/C [13]: 111 % of control

Compound: CC1(C)N=C(N)N=C(N)N1c1ccc(OCCCNC(=O)Nc2cccc(S(=O)(=O)F)c2)c(Cl)c1
- T/C [7]: 102 % of control
- T/C [8]: 124 % of control

Compound: CN=C1CN(O)C(c2ccccc2)=c2cc(Cl)ccc2=N1
- T/C (dose: 3.12 mg/kg/injection, schedule: Q01DX009 (ip), vehicle: saline): 115 % of control
- T/C [14]: 101 % of control and 114 % of control
- T/C [12]: 92 % of control and 94 % of control and 101 % of control
- T/C [7]: 100 % of control and 101 % of control
- T/C [8]: 114 % of control and 117 % of control
- T/C [9]: 100 % of control and 102 % of control

Compound: CCOC(=O)CCCc1c[nH]c2ccccc12
- T/C [5]: 107 % of control
- T/C [15]: 109 % of control
- T/C [16]: 115 % of control
- T/C [17]: 93 % of control
- T/C [6]: 107 % of control
- T/C [18]: 95 % of control

Compound: NC(CC(=O)CCl)C(=O)O (stereo not drawn)
- T/C (dose: 3.13 mg/kg/injection, schedule: Q01DX009 (ip), vehicle: saline): 109 % of control
- T/C [14]: 118 % of control

Compound: CCCC(=O)O
- T/C [12]: 106 % of control
- T/C [7]: 101 % of control
- T/C [8]: 92 % of control
- T/C [9]: 106 % of control

Compound: O=C(CBr)c1ccc(-c2ccccc2)cc1
- T/C [19]: 88 % of control
- T/C (dose: 25.0 mg/kg/injection, schedule: Q04DX003 (ip), vehicle: Klucel (hydroxypropylcellulose) (HPC)): 102 % of control
- T/C [10]: 93 % of control
- T/C (dose: 50.0 mg/kg/injection, schedule: Q04DX003 (ip), vehicle: Klucel (hydroxypropylcellulose) (HPC)): 94 % of control

Compound: C=C(Cl)C(=NC(C)(C)C)Nc1ccccc1C
- T/C [1]: 99 % of control
- T/C [2]: 86 % of control
- T/C [3]: 92 % of control
- T/C [4]: 102 % of control

Compound: Cc1ccc2cc3c(ccc4ccccc43)c3c2c1CC3
- T/C [8]: 124 % of control
- T/C [5]: 120 % of control
- T/C [15]: 110 % of control
- T/C [16]: 114 % of control
- T/C [17]: 110 % of control
- T/C [18]: 115 % of control

Compound: C1=C(c2ccccc2)CCCC1
- T/C [20]: 90 % of control
- T/C (dose: 200.0 mg/kg/injection, schedule: Q04DX003 (ip), vehicle: Klucel (hydroxypropylcellulose) (HPC)): 93 % of control
- T/C (dose: 400.0 mg/kg/injection, schedule: Q04DX003 (ip), vehicle: Klucel (hydroxypropylcellulose) (HPC)): 103 % of control

Compound: Nc1ccc(Nc2ccc([N+](=O)[O-])cc2[N+](=O)[O-])cc1
- T/C (dose: 50.0 mg/kg/injection, schedule: Q04DX003 (ip), vehicle: gum acacia): 104 % of control
- T/C (dose: 100.0 mg/kg/injection, schedule: Q04DX003 (ip), vehicle: gum acacia): 97 % of control
- T/C (dose: 200.0 mg/kg/injection, schedule: Q04DX003 (ip), vehicle: gum acacia): 95 % of control

Compound: NC(N)=Nc1cc2ccccc2c2ccccc12
- T/C (dose: 5.0 mg/kg/injection, schedule: Q01DX009 (ip), vehicle: saline): 93 % of control
- T/C (dose: 10.0 mg/kg/injection, schedule: Q01DX009 (ip), vehicle: saline): 111 % of control
- T/C (dose: 20.0 mg/kg/injection, schedule: Q01DX009 (ip), vehicle: saline): 120 % of control

Compound: CC(C)C1(C(=O)NNC(=O)CCCc2ccc(N(CCCl)CCCl)cc2)OC2(O)CCCCCN2C1=O (stereo not drawn)
- T/C (dose: 6.25 mg/kg/injection, schedule: Q04DX003 (ip), vehicle: Klucel (hydroxypropylcellulose) (HPC)): 105 % of control
- T/C (dose: 12.5 mg/kg/injection, schedule: Q01DX009 (ip), vehicle: DMSO): 114 % of control
- T/C [19]: 118 % of control
- T/C [20]: 167 % of control

Compound: CN1C2CCC1CNC2
- T/C (dose: 100.0 mg/kg/injection, schedule: Q04DX003 (ip), vehicle: saline): 105 % of control
- T/C (dose: 200.0 mg/kg/injection, schedule: Q04DX003 (ip), vehicle: saline): 105 % of control
- T/C (dose: 400.0 mg/kg/injection, schedule: Q04DX003 (ip), vehicle: saline): 100 % of control

Compound: Cc1cccc(C)c1NC(=O)c1ccccc1C(=O)O
- T/C [5]: 97 % of control
- T/C [16]: 92 % of control
- T/C [6]: 95 % of control

Reference: PubChem BioAssay AID192 (DTP/NCI, 2004)
